Active and inactive are the calls of the source.
Legend:
[1] = biological target: Photoreceptor-specific nuclear receptor (Homo sapiens, UniProt Q9Y5X4); format: functional, cell-based;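 further: CHO-S cells with Gal4-NCOR and VP16-NR2E3 two-hybrid luciferase reporter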
[2] = biological target: Nuclear receptor subfamily 5 group A member 2 (Homo sapiens, UniProt O00482); format: functional, cell-based;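 further: HEK293T cells transfected with LRH-1 and a StAR promoter luciferase reporter; potency for inhibitors that lower LRH-1 driven reporter light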
Chain of Nuclear receptor subfamily 5 group A member 2 (O00482 whole entry): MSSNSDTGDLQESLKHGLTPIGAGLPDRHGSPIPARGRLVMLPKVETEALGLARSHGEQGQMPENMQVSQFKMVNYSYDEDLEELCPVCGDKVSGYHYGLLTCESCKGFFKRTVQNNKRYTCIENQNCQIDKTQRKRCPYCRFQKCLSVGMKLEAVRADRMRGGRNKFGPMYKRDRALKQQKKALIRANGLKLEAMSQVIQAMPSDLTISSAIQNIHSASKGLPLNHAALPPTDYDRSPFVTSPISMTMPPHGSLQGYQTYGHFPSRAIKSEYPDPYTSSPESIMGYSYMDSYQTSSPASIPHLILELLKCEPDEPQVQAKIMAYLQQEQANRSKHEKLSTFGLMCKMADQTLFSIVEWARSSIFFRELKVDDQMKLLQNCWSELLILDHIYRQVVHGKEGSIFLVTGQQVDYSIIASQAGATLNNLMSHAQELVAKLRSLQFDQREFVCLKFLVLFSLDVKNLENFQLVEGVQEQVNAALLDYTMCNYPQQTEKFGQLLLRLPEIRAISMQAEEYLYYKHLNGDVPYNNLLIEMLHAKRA

Steroidogenic factor 1 = Steroidogenic factor 1 (Homo sapiens, UniProt Q13285); experiment: Counterscreen for inverse agonists of the liver receptor homolog-1 (LRH-1; NR5A2): Luminescence-based cell-based high throughput dose response assay to identify inverse agonists of the Steroidogenic Factor 1 Nuclear Receptor (SF1; NR5A1).; format: functional
Chain of Steroidogenic factor 1 (Q13285 whole entry): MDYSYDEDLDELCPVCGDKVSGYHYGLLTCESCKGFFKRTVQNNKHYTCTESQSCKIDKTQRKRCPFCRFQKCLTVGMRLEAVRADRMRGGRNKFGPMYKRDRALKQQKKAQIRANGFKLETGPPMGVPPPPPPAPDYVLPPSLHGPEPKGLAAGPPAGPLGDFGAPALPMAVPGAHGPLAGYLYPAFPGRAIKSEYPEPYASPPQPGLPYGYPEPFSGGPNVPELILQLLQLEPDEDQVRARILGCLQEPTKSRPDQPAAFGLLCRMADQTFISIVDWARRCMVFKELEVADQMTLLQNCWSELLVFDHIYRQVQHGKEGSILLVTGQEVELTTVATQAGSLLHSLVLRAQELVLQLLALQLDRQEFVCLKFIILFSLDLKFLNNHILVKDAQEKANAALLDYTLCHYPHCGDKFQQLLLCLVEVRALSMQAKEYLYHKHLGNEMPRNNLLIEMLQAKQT

[3] = nonselective StAR promoter luciferase inhibitors – cell-based, luminescence, luciferase reporter, counter-screen for LRH-1 inverse agonist project, dose response (AID 651969); format: functional
[4] = biological target: Tyrosine-protein phosphatase non-receptor type 11 (Homo sapiens, UniProt Q06124); experiment: PTPN11 enzyme inhibitors – biochemical, selectivity assay for STEP inhibitor project, dose response (AID 602367); format: functional; details: read-out: IC50_Mean
Chain of Tyrosine-protein phosphatase non-receptor type 11 (Q06124 whole entry, the tested form may be a part): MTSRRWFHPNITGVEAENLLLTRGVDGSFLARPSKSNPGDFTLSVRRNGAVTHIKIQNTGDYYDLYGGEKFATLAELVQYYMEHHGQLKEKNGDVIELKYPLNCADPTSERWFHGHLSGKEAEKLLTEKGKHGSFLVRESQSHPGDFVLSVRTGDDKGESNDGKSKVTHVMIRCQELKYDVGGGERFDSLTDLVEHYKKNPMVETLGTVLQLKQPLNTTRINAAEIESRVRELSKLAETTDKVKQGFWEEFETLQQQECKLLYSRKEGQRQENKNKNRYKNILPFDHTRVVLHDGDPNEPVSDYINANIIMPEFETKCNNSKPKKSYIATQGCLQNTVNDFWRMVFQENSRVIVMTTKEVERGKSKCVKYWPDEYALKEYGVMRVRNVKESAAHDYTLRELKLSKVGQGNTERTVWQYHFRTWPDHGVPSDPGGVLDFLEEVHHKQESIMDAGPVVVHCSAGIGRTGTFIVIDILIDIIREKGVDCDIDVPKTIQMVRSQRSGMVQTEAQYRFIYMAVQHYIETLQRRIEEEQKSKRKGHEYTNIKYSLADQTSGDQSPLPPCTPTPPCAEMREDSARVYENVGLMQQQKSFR

[5] = biological target: T1, RNA-binding protein pos-1 (Caenorhabditis elegans, UniProt G5EF15); experiment: disruptors of C. elegans POS-1 RNA interaction – biochemical, fluorescence polarization, dose response (AID 1964);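 further: purified POS-1 fused to maltose binding protein made in E. coli; potency of compounds blocking POS-1 binding to fluorescent RNA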
T1 sequence (G5EF15 whole entry): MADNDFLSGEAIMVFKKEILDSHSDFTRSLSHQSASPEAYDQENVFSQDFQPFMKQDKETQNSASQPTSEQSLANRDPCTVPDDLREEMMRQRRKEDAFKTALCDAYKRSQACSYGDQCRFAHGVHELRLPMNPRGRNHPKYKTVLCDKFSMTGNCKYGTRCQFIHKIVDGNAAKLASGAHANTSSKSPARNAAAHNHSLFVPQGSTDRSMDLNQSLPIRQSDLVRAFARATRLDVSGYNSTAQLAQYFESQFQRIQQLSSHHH

[6] = biological target: Tyrosine-protein phosphatase non-receptor type 5 (Homo sapiens, UniProt P54829); experiment: PTPN5 enzyme inhibition – biochemical, fluorescence intensity, uHTS hits, confirmation (AID 602372); format: functional; details: read-out: IC50_Mean
Chain of Tyrosine-protein phosphatase non-receptor type 5 (P54829 whole entry): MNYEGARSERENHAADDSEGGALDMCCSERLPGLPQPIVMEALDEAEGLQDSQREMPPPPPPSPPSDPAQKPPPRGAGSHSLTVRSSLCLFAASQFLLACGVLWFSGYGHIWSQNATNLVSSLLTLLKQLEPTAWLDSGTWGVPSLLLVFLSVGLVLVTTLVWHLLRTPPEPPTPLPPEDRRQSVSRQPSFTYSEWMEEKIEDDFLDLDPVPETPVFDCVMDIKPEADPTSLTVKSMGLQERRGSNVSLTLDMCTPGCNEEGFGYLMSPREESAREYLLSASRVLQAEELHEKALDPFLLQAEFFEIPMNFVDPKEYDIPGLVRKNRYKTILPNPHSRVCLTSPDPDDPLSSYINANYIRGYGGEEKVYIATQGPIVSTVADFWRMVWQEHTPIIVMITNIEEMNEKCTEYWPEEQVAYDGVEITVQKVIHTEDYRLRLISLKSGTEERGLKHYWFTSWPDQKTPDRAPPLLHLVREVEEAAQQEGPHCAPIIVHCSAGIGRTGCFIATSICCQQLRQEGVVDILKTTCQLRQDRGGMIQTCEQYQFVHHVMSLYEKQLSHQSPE

Genome polyprotein = Genome polyprotein (dengue virus type 2, UniProt P29990); experiment: flavivirus cap methylation enzyme inhibition – biochemical, confirmation dose response, primary screen (AID 588689); format: functional
Chain of Genome polyprotein (P29990 2492-3391 limits assumed): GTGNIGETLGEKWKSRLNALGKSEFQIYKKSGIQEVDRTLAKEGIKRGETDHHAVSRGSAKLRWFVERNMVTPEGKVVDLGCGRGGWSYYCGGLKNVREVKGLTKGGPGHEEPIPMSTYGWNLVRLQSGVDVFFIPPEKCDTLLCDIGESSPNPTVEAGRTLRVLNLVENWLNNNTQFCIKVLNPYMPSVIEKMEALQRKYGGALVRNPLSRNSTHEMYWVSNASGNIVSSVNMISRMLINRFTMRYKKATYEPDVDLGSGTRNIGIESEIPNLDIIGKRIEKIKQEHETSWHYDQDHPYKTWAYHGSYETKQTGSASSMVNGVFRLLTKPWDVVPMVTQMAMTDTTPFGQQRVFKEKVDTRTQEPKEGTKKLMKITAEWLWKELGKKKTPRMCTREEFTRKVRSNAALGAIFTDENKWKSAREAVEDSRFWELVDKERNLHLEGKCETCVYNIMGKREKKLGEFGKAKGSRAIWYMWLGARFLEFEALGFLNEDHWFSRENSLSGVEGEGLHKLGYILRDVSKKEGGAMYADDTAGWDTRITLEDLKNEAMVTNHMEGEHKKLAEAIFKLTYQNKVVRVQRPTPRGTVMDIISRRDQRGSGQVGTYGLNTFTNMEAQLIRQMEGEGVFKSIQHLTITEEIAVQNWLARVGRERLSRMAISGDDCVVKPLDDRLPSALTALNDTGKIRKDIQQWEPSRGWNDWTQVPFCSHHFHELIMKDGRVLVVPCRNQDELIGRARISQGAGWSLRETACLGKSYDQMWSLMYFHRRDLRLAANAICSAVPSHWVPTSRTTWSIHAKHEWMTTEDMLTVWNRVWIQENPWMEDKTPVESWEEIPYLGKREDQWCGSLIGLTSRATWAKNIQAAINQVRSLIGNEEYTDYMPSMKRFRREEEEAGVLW

[7] = biological target: T2, Zinc finger protein mex-5 (Caenorhabditis elegans, UniProt Q9XUB2); experiment: potency of MEX-5 RNA-binding blockers – biochemical, C. elegans, fluorescence polarization, dose response (AID 1960)
T2 sequence (Q9XUB2 whole entry): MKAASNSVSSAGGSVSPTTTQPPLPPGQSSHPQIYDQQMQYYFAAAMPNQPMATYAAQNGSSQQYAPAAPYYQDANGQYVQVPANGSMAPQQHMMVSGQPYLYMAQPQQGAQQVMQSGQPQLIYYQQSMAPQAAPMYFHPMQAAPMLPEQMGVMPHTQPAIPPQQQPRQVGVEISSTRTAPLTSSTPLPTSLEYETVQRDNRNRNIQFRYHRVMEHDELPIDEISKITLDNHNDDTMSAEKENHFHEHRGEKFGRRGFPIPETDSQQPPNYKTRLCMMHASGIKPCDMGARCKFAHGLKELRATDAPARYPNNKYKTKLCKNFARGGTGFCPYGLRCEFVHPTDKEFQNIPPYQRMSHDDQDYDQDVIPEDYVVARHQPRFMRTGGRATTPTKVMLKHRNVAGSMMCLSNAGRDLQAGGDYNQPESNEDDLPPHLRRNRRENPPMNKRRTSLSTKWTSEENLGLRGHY

[8] = biological target: T3, Long-chain-fatty-acid--AMP ligase FadD28 (Mycobacterium tuberculosis, UniProt P9WQ59); experiment: Fluorescence polarization aasay to screen for inhibitors that compete for the binding of FadD28 to a bisubstrate Measured in Biochemical System Using Plate Reader - 2147-01_Inhibitor_Dose_CherryPick_Activity.; format: functional, Mycobacterium tuberculosis H37Rv
T3 sequence (P9WQ59 whole entry): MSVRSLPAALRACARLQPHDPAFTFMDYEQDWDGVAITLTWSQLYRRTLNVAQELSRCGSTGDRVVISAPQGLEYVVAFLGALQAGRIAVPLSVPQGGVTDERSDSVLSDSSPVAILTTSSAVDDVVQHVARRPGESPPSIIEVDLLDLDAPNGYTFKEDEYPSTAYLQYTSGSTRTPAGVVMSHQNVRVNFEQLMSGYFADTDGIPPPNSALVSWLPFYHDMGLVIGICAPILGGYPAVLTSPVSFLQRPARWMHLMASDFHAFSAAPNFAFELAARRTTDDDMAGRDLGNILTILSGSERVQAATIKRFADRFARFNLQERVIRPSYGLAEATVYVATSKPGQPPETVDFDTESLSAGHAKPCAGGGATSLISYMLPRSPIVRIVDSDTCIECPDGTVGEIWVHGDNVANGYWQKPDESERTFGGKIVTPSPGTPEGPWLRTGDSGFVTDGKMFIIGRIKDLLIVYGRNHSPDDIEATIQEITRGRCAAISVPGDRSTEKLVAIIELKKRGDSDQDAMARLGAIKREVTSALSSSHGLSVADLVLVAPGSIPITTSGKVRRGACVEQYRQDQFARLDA

[9] = biological target: Dual specificity protein phosphatase 3 (Homo sapiens, UniProt P51452); experiment: VHR phosphatase inhibition, dose response, selectivity assay for STEP inhibitor project, biochemical (AID 602374); format: functional; details: read-out: IC50_Mean
Chain of Dual specificity protein phosphatase 3 (P51452 whole entry): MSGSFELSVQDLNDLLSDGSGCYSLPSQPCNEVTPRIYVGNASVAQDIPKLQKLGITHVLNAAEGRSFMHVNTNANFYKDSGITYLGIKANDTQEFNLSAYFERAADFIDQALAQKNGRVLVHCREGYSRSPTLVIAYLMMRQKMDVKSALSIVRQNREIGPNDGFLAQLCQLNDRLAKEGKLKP

Chain of Photoreceptor-specific nuclear receptor (Q9Y5X4 whole entry, the tested form may be a part): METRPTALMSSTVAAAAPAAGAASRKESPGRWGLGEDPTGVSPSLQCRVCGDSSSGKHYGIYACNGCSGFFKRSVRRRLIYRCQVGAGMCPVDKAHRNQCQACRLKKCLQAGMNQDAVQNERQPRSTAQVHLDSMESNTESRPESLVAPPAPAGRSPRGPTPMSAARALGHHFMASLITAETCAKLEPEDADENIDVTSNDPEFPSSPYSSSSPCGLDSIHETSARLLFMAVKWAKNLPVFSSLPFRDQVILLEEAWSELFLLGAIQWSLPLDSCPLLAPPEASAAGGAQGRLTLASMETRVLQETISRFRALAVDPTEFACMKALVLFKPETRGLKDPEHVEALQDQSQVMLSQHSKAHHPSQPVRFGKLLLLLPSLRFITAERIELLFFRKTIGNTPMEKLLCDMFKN

Which IC50 [1] does the source give for `Oc1cc(C(F)(F)F)nc(SC/C=C/c2ccccc2)n1` here?
Its IC50 is 12.7 µM (inactive).

Which IC50 [2] does the source give for `O=C(Nc1ccccc1)c1oc2ccccc2c1NC(=O)C1CC1` here?
The IC50 was 35.9 µM (inactive).

And the IC50 (Steroidogenic factor 1)?
Its IC50 is 35.9 µM (inactive).

What about the IC50 [3] of the same molecule?
Its IC50 is 35.9 µM (inactive).

What does the source list for `COc1cc(/C=C2/C(=O)NN(c3cccc(C)c3)C2=O)cc([N+](=O)[O-])c1O`?
IC50 [4]: 5.63 µM (active); EC50 [5]: > 300 µM (not active); IC50 [6]: 25.5 µM (inactive); IC50 (Genome polyprotein): 51.5 µM (active); EC50 [7]: 89.1 µM (active); AC50 [8]: 39.2 µM (active); IC50 [9]: 4.11 µM (active)

— ChEMBL document CHEMBL1201862, “PubChem BioAssay data set” (2004)
